{
  "source": "patent US8519007B2",
  "about": "“Use certain diterpene compounds in the treatment of androgen receptor-associated diseases” (Academia Sinica, priority 2008, dated 2013)",
  "key": {"LNCaP cells [1]": {"system": "LNCaP cells", "assay": "Apoptosis by nucleosome release (cytoplasmic DNA fragmentation)", "type": "cell-based, human", "conditions": "5-10 μM, 24 h", "method": "(§1) FIGS. 4A-B. HDHS induces apoptosis in AR-dependent PCa cells. A, Apoptosis of cytoplasmic DNA fragmentation in different cell lines treated with vehicle or indicated concentrations of HDHS for 24 h. Difference between the indicated pair of treatments was tested for statistic significance as marked. *, P≦0.05; **, P≦0.01. B, Activation of caspases and PARP in HDHS-induced apoptosis of LNCaP cells.\n(§2) In light of the increase of sub-G1 populations by HDHS, apoptosis in treated cells was further analyzed via measurement of nucleosome release in PCa cells. […] 22Rv1 cells with AR expression are ablation-resistant but respond to androgen stimulation; HDHS led to their apoptosis."}, "PC-3 cells [2]": {"system": "PC-3 cells", "assay": "Apoptosis by nucleosome release (cytoplasmic DNA fragmentation)", "type": "cell-based, human", "conditions": "PC-3, 5-10 μM, 24 h", "method": "as §1, §2"}, "LNCaP cells [3]": {"system": "LNCaP cells", "assay": "Western blot of G1-associated cyclins, CDKs, CDK inhibitors and Rb phosphorylation", "type": "cell-based, human", "conditions": "24 h", "source_text": "(§3) The molecular mechanisms for HDHS-induced G0-G1 cell cycle arrest were further assessed by the expression of the cyclins and CDKs that operate in the G1 phase in PCa cells (Malumbres M et al., Nat Rev Cancer 2001; 1:222-31; Massague J. Nature 2004; 432:298-306)."}, "PC-3 cells [4]": {"system": "PC-3 cells", "assay": "Western blot of G1-associated cyclins, CDKs, CDK inhibitors and Rb phosphorylation", "type": "cell-based, human", "conditions": "PC-3, compared with LNCaP", "source_text": "as §3"}, "22Rv1 tumors": {"system": "22Rv1 tumors", "assay": "22Rv1 xenograft in athymic nude mice, oral HDHS", "type": "in vivo", "method": "(§4) 22Rv1 cells were derived from a castration-relapsed tumor of human PCa origin that represents a clinical limitation for hormonal therapy (Nagabhushan M, et al., Cancer Res 1996;56:3042-6; Sramkoski R M, et al., In Vitro Cell Dev Biol Anim 1999; 35:403-9). The potential of HDHS to inhibit growth of PCa in vivo was tested in athymic nude mice with 22Rv1 tumors. […]. All animal work was done in accordance with the protocol approved by the Institutional Animal Care and Use Committee, Academia Sinica. Aliquots of 1×10^6 22Rv1 cells were suspended in 1:1 PBS mixed with Matrigel (BD Biosciences, San Jose, Calif.) and were subcutaneously inoculated into the right flank of each mouse. Once the tumor grew to palpable size one week after 22Rv1 cells were implanted, mice were stochastically assigned to three groups (n=7) that received vehicle control or HDHS at different dosages (0.5 and 2.5 mg/kg/day), by gavage in 0.2 mL of PBS containing 10% DMSO. Tumors were measured twice per week using calipers and their volumes calculated using a standard formula, as follows: width2×length×0.5. Body weight was measured weekly. Mice received 24 doses, and 24 h after the last dose they were sacrificed to harvest plasma and tumors. A portion of each tumor was snap-frozen in liquid nitrogen and stored at −80° C. until needed for western blot analysis of relevant biomarkers, and the remainder was fixed in 10% formalin overnight.\nImmunohistochemistry was conducted to examine the in vivo effects of HDHS on proliferation and apoptosis in tumor xenografts. The paraffin-embedded tumor sections (4 μm thickness) were heat immobilized, deparaffinized using xylene and rehydrated in a graded series of ethanol with a final wash in distilled water. Antigen retrieval was done in TARGET RETRIEVAL SOLUTION (DakoCytomation, Glostrup, Denmark) in a DECLOAKING CHAMBER (Biocare Medical, Concord, Calif.) followed by quenching of endogenous peroxidase activity. Sections were then incubated with specific primary antibodies, including mouse monoclonal anti-Ki-67 (DakoCytomation) and rabbit polyclonal anti-AR (Santa Cruz) at 4° C. overnight in a humidity chamber. An ENVISION system (DakoCytomation) was used to detect the reaction products. In situ detection of apoptotic cells was carried out using terminal deoxynucleotidyl transferase-mediated nick-end labeling (TUNEL assay) reaction mixture according to the manufacturer's protocol (Chemicon)."}, "PC-3 cells [5]": {"system": "PC-3 cells", "assay": "Western blot of caspases and PARP", "type": "cell-based, human", "conditions": "PC-3, 10 μM, 24 h", "method": "During apoptosis, various caspases are activated which are involved in the cleavage and […] a range of cellular substrates, including […] the DNA repair enzyme PARP (Herceg Z et al., Mol Cell Biol 1999;10:5124-33; Okada H et al., Nat Rev Cancer 2004; 4:592-603). In the presence of 10 μM HDHS, PARP cleavage was observed, and at the same time caspase-3 and -7 were activated by proteolytic cleavage (FIG. 4B, lane 5). […] In contrast, activation of caspase-3 and -7 or cleavage of PARP were not detected in PC-3 cells treated with 10 μM HDHS for 24 h (FIG. 4B, lane 10). Tumor suppressor p53 is a control for the G1 checkpoint and cell apoptosis, and LNCaP cells express wild-type p53 (van Bokhoven A et al., Prostate 2003; 57:205-25)."}, "[6]": {"assay": "HDHS levels in plasma and tumors of treated nude mice (HPLC)", "type": "in vivo", "conditions": "24 h after the last of 24 doses; for concentration at 24 h after the last dose: athymic (nu/nu) nude, mouse, in vivo, read-out: HDHS level in plasma", "method": "as §4\nIn order to further understand the dose-effect relationships, the attainable levels of HDHS in plasma and tumors were detected 24 h after the last dose of HDHS regimen in the tested mice. […]. These increases of HDHS concentrations in plasma and tumors were dose-dependent and consistent with the extent of tumor suppression (FIGS. 6A and B)."}, "NIH-3T3 cells": {"system": "NIH-3T3 cells", "assay": "MTT cell viability", "type": "cell-based", "conditions": "NIH-3T3, concentrations above 10 μM, 48 h, versus LNCaP and 22Rv1", "method": "The effects of HDHS on cell viability in various PCa cell lines including androgen-dependent LNCaP, androgen-responsive 22Rv1 cells, and androgen-independent PC-3 cells were tested and compared with untransformed fibroblast NIH-3T3 cells. PCa or NIH-3T3 cells (1×10^4 cells) were seeded into 96-well microtiter plates with 10% FBS culture medium. After 24 h, cells were incubated in 10% FBS medium containing different concentrations of HDHS or equivalent amounts of vehicle alone as control for 48 h. Cell viability was then determined by MTT assay, which quantitatively measures the metabolic activity of living cells."}, "[7]": {"conditions": "0.5 and 2.5 mg/kg/day oral, 24 days"}},
  "note": "Read-outs that look alike come from different tables or passages of the source.",
  "data": [
    {"smiles": "CC(C)c1cc2c(cc1O)[C@@]1(C)CCCC(C)(C)C1=C(O)C2=O", "note": "[Compound 2, 6,12-dihydroxyabieta-5,8,11,13-tetraen-7-one]", "values": [
      {"measurement": "apoptosis (nucleosome release)", "setting": "LNCaP cells [1]", "value": "significantly induced"},
      {"measurement": "apoptosis (nucleosome release)", "setting": "PC-3 cells [2]", "value": "not in PC-3 cells"},
      {"measurement": "protein expression of CDK inhibitors p21 and p27", "setting": "LNCaP cells [3]; 10 μM", "value": "increased"},
      {"measurement": "cyclins D1 and E protein", "setting": "LNCaP cells [3]", "value": "concentration-dependent decrease"},
      {"measurement": "phosphorylation of Rb", "setting": "LNCaP cells [3]", "value": "markedly decreased"},
      {"measurement": "protein levels of CDK4, CDK6, and CDK2", "setting": "LNCaP cells [3]", "value": "decreased"},
      {"measurement": "changes in cyclins, CDKs, p21, p27 and Rb phosphorylation", "setting": "PC-3 cells [4]", "value": "at a lower magnitude than in LNCaP cells"},
      {"measurement": "Ki-67 positive proliferative tumor cells", "setting": "22Rv1 tumors; [7]", "value": "decreased the number of cells positively stained for Ki-67"},
      {"measurement": "TUNEL positive apoptotic tumor cells", "setting": "22Rv1 tumors; [7]", "value": "increase of apoptotic tumor cells"},
      {"measurement": "AR expression in tumor cells (immunohistochemistry)", "setting": "22Rv1 tumors; HDHS-treated 22Rv1 tumors", "value": "prevalent decrease of AR expression"},
      {"measurement": "tumor growth of 22Rv1 xenograft", "setting": "22Rv1 tumors; nude mice, 0.5 and 2.5 mg/kg/day by gavage, 24 doses", "value": "significantly retarded tumor growth"},
      {"measurement": "symptoms of toxicity (loss of appetite, decreased locomotion, signs of illness)", "setting": "22Rv1 tumors; nude mice, 24-day regimen, oral", "value": "did not exhibit any symptoms of toxicity"},
      {"measurement": "body weight of tested mice", "setting": "22Rv1 tumors; up to 2.5 mg/kg per day, oral", "value": "not influenced"},
      {"measurement": "activation of caspase-3 and -7 or cleavage of PARP", "setting": "PC-3 cells [5]", "value": "not detected"},
      {"measurement": "concentration at 24 h after the last dose", "setting": "[6]; oral 0.5 mg/kg", "value": "450 ± 140", "unit": "nM"},
      {"measurement": "concentration at 24 h after the last dose", "setting": "[6]; oral 2.5 mg/kg", "value": "1450 ± 300", "unit": "nM"},
      {"measurement": "HDHS level in tumor tissues", "setting": "[6]; oral 0.5 mg/kg", "value": "98.45 ± 19.80", "unit": "nmol/g"},
      {"measurement": "HDHS level in tumor tissues", "setting": "[6]; oral 2.5 mg/kg", "value": "154.93 ± 12.97", "unit": "nmol/g"},
      {"measurement": "cell viability (MTT)", "setting": "NIH-3T3 cells", "value": "far less pronounced"}
    ]}
  ]
}
